Results as given in patent US7687640B2, “Cinnamide compound” (Eisai R&D Management Co., Ltd., priority 2004, dated 2010).
Structures can show the parent of a compound that is named as a salt.

Each molecule was assayed on Aβ42 production (assay: Quantification of Aβ peptide (Aβx-42 ELISA) in neuronal culture from rat fetus brain). Conditions: primary neuronal culture from cerebral cortices of embryonic day 18 Wistar rat; compound added on day 4 of culture, incubation for 3 days; Aβx-42 in medium by ELISA, % of CTRL; read-out: Effect to Reduce Aβ42 Production IC50.
Format: cell-based
Procedure: Quantification of Aβ Peptide in Neuronal Culture from Rat Fetus Brain (1)
Primary neuronal cultures were prepared from cerebral cortices from embryonic day 18 Wistar rat (Charles River Japan, Yokohama, Japan). The embryos were aseptically removed from a pregnant rat under ether anesthesia. The brain was isolated from the embryo, and immersed in ice-cold L-15 medium (for example, Invitrogen Corp. Cat #11415-064, Carlsbad, Calif., USA, or SIGMA L1518, St. Louis. MO, USA). The cerebral cortex was collected under a stereoscopic microscope from the brain. The cerebral cortex fragments collected were subjected to enzyme treatment in an enzyme solution containing 0.25% trypsin (for example, Invitrogen Corp., Cat #15050-065, Carlsbad, Calif., USA) and 0.01% DNase (for example, Sigma D5025, St. Louis. MO, USA) at 37 C for 30 minutes to allow for cell dispersion. The enzyme reaction was terminated by addition of same volume of heat-inactivated horse serum. After centrifugation at 1500 rpm for 5 minutes, the supernatant was removed and 5-10 ml of medium was added to the cell pellet. Neurobasal Medium™ (Invitrogen Corp., Carlsbad, Calif., USA) supplemented with 2% B-27 supplement (Invitrogen Corp., Carlsbad, Calif., USA), 25 μM 2-mercaptoethanol (2-ME, WAKO, 139-06861, Osaka, Japan), 0.5 mM L-glutamine (for example, Invitrogen Corp., Cat # 25030-081, Carlsbad, Calif., USA), and 1% antibiotics-antimycotics (Invitrogen Corp., Cat # 15240-062, Carlsbad, Calif., USA) was used as the culture medium (Neurobasal/B27/2-ME). At the compound evaluation, the medium of the same composition not to add 2-ME alone (Neurobasal/B27) was used. The cell pellet was triturated by mild pipetting. Remaining cell pellet was removed by filtering through a 40-μm nylon mesh (Cell Strainer, Cat # 35-2340, Becton Dickinson Labware, Franklin Lakes, N.J., USA) and a neuronal cell suspension was obtained. The neuronal cell suspension was diluted with the Neurobasal/B27/2-ME medium and then plated in a volume of 100 μl/well to obtain an initial cell density of 5×10^5 cells/cm^2 in a 96-well polystyrene plate pre-coated with poly-L or D-lysine (for example, Falcon MICROTEST Tissue culture plate 96 well flat bottom with low evaporation lid (Cat # 35-3075, Becton Dickinson Labware, Franklin Lakes, N.J., USA) coated with poly-L-lysine using the method shown below, or BIOCOAT™ cell environments Poly-D-lysine cell ware 96-well plate, Cat # 35-6461, Becton Dickinson Labware, Franklin Lakes, N.J., USA). Poly-L-lysine coating was carried out as follows. Poly-L-lysine (SIGMA P2636, St. Louis, Mo., USA) solution at 100 μg/ml was prepared aseptically with 0.15 M Borate buffer (pH 8.5). The solution was added to a 96-well polystyrene […] at 50-100 μl/well and incubated at room temperature for one hour or more, or at 4 C overnight or longer. This was rinsed 4 or more times with sterile water, and then dried or rinsed with, for example, sterile PBS or medium, and used for plating cells. Cells were cultured for one day in an incubator of 5% CO2-95% air at 37 C, the entire amount of the medium was exchanged with fresh Neurobasal/B27/2-ME, and the cells were then cultured for further 3 days.
Drugs were added on day 4 of culture as follows. The entire amount of the medium was removed from culture well, and Neurobasal/B27 medium was added at 180 μl/well. The test compound dimethyl sulfoxide (hereinafter abbreviated as DMSO) solution was diluted with Neurobasal/B27 so than it would be 10-fold of the desired final concentration. A diluent was added at 20 μl/well and mixed well. The final concentration of DMSO was 1% or less. Only DMSO was added to the control group.
After incubation for 3 days, the entire amount of the medium was collected as ELISA sample. This was used without any dilution for Aβx-42 measurement, and diluted to 5-fold with the diluent supplied with ELISA kit for Aβx-40 measurement, before subjecting to respective ELISA assays. […]

Compound | IC50 [nM]
COc1cc(/C=C2\CCCN([C@@H](C)c3ccc(F)cc3)C2=O)ccc1-n1cnc(C)c1 [Example 425, (E)-1-[(1S)-1-(4-fluorophenyl)ethyl]-3-[3-methoxy-4-(4-methyl-1H-imidazol-1-yl)benzylidene]piperidin-2-one] | 80
COc1cc(/C=C/C(=O)NCc2cccc(-c3ccccc3)c2)ccc1-n1cnc(C)c1 [Example 121, (E)-N-biphenyl-3-ylmethyl-3-(3-methoxy-4-(4-methyl-1H-imidazol-1-yl)phenyl)acrylic acid amide] | 70
COc1cc(/C=C2\CCCN(Cc3cccc(I)c3)C2=O)ccc1-n1cnc(C)c1 [Example 402, (E)-1-(3-iodobenzyl)-3-[3-methoxy-4-(4-methyl-1H-imidazol-1-yl)benzylidene]piperidin-2-one monotrifluoroacetic acid salt] | 70
COc1cc(/C=C2\CCCN(Cc3cccc(Cl)n3)C2=O)ccc1-n1cnc(C)c1 [Example 427, (E)-1-[(6-chloropyridin-2-yl)methyl]-3-[3-methoxy-4-(4-methyl-1H-imidazol-1-yl)benzylidene]piperidin-2-one] | 780
COc1cc(C=C(F)C(=O)N[C@@H]2c3ccccc3C[C@@H]2O)ccc1-n1cnc(C)c1 (stereo in doubt) [Example 90, (E)-2-fluoro-N-[(1R,2S)-2-hydroxy-indan-1-yl]-3-[3-methoxy-4-(4-methyl-1H-imidazol-1-yl)phenyl]acrylamide] | 240
COc1cc(/C=C2\CCCN(C3CCOc4cc(F)ccc43)C2=O)ccc1-n1cnc(C)c1 [Example 1025, (E)-1-[(4R) and (4S)-7-fluorochroman-4-yl]-3-[3-methoxy-4-(4-methyl-1H-imidazol-1-yl)benzylidene]piperidin-2-one] | 70
COc1cc(/C=C2\CCCN([C@H]3CCOc4ccccc43)C2=O)ccc1-n1cnc(C)c1 (mixture of isomers) [Example 420, (E)-1-[(4R) and (4S)-chroman-4-yl]-3-[3-methoxy-4-(4-methyl-1H-imidazol-1-yl)benzylidene]piperidin-2-one] | 120
COc1cc(/C=C/C(=O)N2CCCC(c3ccc(F)cc3)CC2)ccc1-n1cnc(C)c1 (stereo not shown) [Example 353, (E)-1-[4-(4-fluorophenyl)azepan-1-yl]-3-[3-methoxy-4-(4-methyl-1H-imidazol-1-yl)phenyl]propenone] | 220
COc1cc(/C=C(\Cc2ccccc2)C(=O)N[C@@H]2c3ccccc3C[C@@H]2O)ccc1-n1cnc(C)c1 [Example 96, (E)-2-benzyl-N-[(1R,2S)-2-hydroxy-indan-1-yl]-3-[3-methoxy-4-(4-methyl-1H-imidazol-1-yl)phenyl]acrylamide trifluoroacetic acid salt] | 220
COc1cc(/C=C2\CCCN(Cc3ccc(C(C)(C)C)cc3)C2=O)ccc1-n1cnc(C)c1 [Example 430, (E)-1-(4-tert-butylbenzyl)-3-[3-methoxy-4-(4-methyl-1H-imidazol-1-yl)benzylidene]piperidin-2-one] | 119
COc1cc(/C=C(\F)C(=O)NC2c3ccccc3-c3ccccc32)ccc1-n1cnc(C)c1 [Example 86, N-(9H-fluoren-9-yl)-2-fluoro-3-[3-methoxy-4-(4-methyl-1H-imidazol-1-yl)phenyl]acrylamide] | 320
COc1cc(/C=C2\CCCN(C3Cc4ccccc4C3)C2=O)ccc1-n1cnc(C)c1 [Example 418, (E)-1-indan-2-yl-3-[3-methoxy-4-(4-methyl-1H-imidazol-1-yl)benzylidene]piperidin-2-one] | 109
COc1cc(/C=C2\CCCN(Cc3ccc(F)c(F)c3)C2=O)cnc1-n1cnc(C)c1 [Example 611, (E)-1-(3,4-difluorobenzyl)-3-{[5-methoxy-6-(4-methyl-1H-imidazol-1-yl)pyridin-3-yl]methylene}piperidin-2-one] | 265
COc1cc(/C=C/C(=O)N2CCC(c3cc4ccccc4n3CCO)CC2)ccc1-n1cnc(C)c1 [Example 366, (E)-1-{4-[1-(2-hydroxyethyl)-1H-indol-2-yl]piperidin-1-yl}-3-[3-methoxy-4-(4-methyl-1H-imidazol-1-yl)phenyl]propenone] | 330
COc1cc(/C=C/C(=O)N[C@H]2CCOc3ccccc32)ccc1-n1cnc(C)c1 (mixture of isomers) [Example 414, (E)-N-[(4R) and (4S)-chroman-4-yl]-3-[3-methoxy-4-(4-methyl-1H-imidazol-1-yl)phenyl]acrylamide] | 130
COc1cc(/C=C2\CCCN(C3Cc4ccc(F)cc4C3)C2=O)ccc1-n1cnc(C)c1 [Example 991, (E)-1-[(2S) and (2R)-5-fluoroindan-2-yl]-3-[3-methoxy-4-(4-methyl-1H-imidazol-1-yl)benzylidene]piperidin-2-one] | 60
COc1cc(/C=C/C(=O)N[C@@H](CF)Cc2ccccc2)ccc1-n1cnc(C)c1 [Example 139, (E)-N-[(1R)-fluoromethyl-2-phenylethyl]-3-[3-methoxy-4-(4-methyl-1H-imidazol-1-yl)phenyl]acrylic acid amide] | 200
COc1cc(/C=C2\CCCN(C3CCc4ccccc4C3)C2=O)ccc1-n1cnc(C)c1 (stereo not shown) [Example 1014, (E)-3-[3-methoxy-4-(4-methyl-1H-imidazol-1-yl)benzylidene]-1-[(2R and 2S)-1,2,3,4-tetrahydronaphthalen-2-yl]piperidin-2-one] | 60
COc1cc(/C=C2\CCCN(C3COc4ccccc4C3)C2=O)ccc1-n1cnc(C)c1 (stereo not shown) [Example 1027, (E)-1-[(3R and 3S)-chroman-3-yl]-3-[3-methoxy-4-(4-methyl-1H-imidazol-1-yl)benzylidene]piperidin-2-one] | 71
COc1cc(/C=C/C(=O)N[C@H]2CCc3ccccc32)ccc1-n1cnc(C)c1 [Example 122, (E)-N-[(1S)-indan-1-yl]-3-[3-methoxy-4-(4-methyl-1H-imidazol-1-yl)phenyl]acrylamide trifluoroacetic acid salt] | 190
COc1cc(/C=C2\CCCN(Cc3ccc(F)c(F)c3)C2=O)ccc1-n1cnc(C)c1 [Example 416, (E)-1-(3,4-difluorobenzyl)-3-[3-methoxy-4-(4-methyl-1H-imidazol-1-yl)benzylidene]piperidin-2-one] | 100
COc1cc(/C=C2\CCCN(C3(c4ccc(F)cc4)CCOCC3)C2=O)ccc1-n1cnc(C)c1 [Example 639, (E)-1-[4-(4-fluorophenyl)tetrahydropyran-4-yl)-3-(3-methoxy-4-(4-methyl-1H-imidazol-1-yl)benzylidene]piperidin-2-one] | 56
COc1cc(/C=C2\CCCN(Cc3cccc(F)c3)C2=O)ccc1-n1cnc(C)c1 [Example 398, (E)-1-(3-fluorobenzyl)-3-[3-methoxy-4-(4-methyl-1H-imidazol-1-yl)benzylidene]piperidin-2-one] | 220
COc1cc(/C=C2\CCCN(C(C)c3c[nH]c4ccccc34)C2=O)ccc1-n1cnc(C)c1 [Example 965, (E)-1-[(1R) and (1S)-(1H-indol-3-yl)ethyl]-3-[3-methoxy-4-(4-methyl-1H-imidazol-1-yl)benzylidene]piperidin-2-one] | 87
COc1cc(/C=C2\CCCN(C(c3ccc(F)cc3)C(C)C)C2=O)ccc1-n1cnc(C)c1 [Example 976, (E)-1-[(1S) and (1R)-1-(4-fluorophenyl)-2-methylpropyl]-3-[3-methoxy-4-(4-methyl-1H-imidazol-1-yl)benzylidene]piperidin-2-one] | 80
